In ChEMBL document CHEMBL1201862, “PubChem BioAssay data set” (2004):
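Tested at 5 concentrations; 48 h exposure; 96-well plates; endpoints linearly interpolated, else capped at highest concentration. GI50 is the concentration that inhibits growth by half.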 The source made the active and inactive calls. Cut-off read from the data, not from the text of the source: active = GI50 up to about 1.1 µM and inactive = higher.

Experiments:
Experiment in all cases: inhibition of tumour cell growth, NCI panel, 48 h
HCT-116 = test system: HCT-116
UO-31 = test system: UO-31
LOX IMVI = test system: LOX IMVI
CCRF-CEM = test system: CCRF-CEM
RXF 393 = test system: RXF 393
ACHN = test system: ACHN
LXFL 529 = test system: LXFL 529
SF-268 = test system: SF-268
SW-620 = test system: SW-620
OVCAR-3 = test system: OVCAR-3
SR = test system: SR
OVCAR-4 = test system: OVCAR-4
SK-MEL-2 = test system: SK-MEL-2
SF-295 = test system: SF-295
KM12 = test system: KM12
PC-3 = test system: PC-3
MCF7 = test system: MCF7
NCI/ADR-RES = test system: NCI/ADR-RES
T47D = test system: T47D
MDA-N = test system: MDA-N

| SMILES | GI50 (HCT-116) | GI50 (UO-31) | GI50 (LOX IMVI) | GI50 (CCRF-CEM) | GI50 (RXF 393) | GI50 (ACHN) | GI50 (LXFL 529) | GI50 (SF-268) | GI50 (SW-620) | GI50 (OVCAR-3) | GI50 (SR) | GI50 (OVCAR-4) | GI50 (SK-MEL-2) | GI50 (SF-295) | GI50 (KM12) | GI50 (PC-3) | GI50 (MCF7) | GI50 (NCI/ADR-RES) | GI50 (T47D) | GI50 (MDA-N) |
| --- | --- | --- | --- | --- | --- | --- | --- | --- | --- | --- | --- | --- | --- | --- | --- | --- | --- | --- | --- | --- |
| Cn1nc(-c2ccccc2)c(C(=O)/C=C/c2ccccc2)c(N2CCOCC2)c1=O | 14.4 µM (inactive) | 14.9 µM (inactive) | 21.6 µM (inactive) | 18.8 µM (inactive) | 12.6 µM (inactive) | 20 µM (inactive) | 16 µM (inactive) | 16.9 µM (inactive) | 28.9 µM (inactive) | – | – | – | – | – | – | – | – | – | – | – |
| CCN(CC)CCCC(C)NC(=O)c1ccc2c(c1)C(=O)c1ccccc1C2=O (stereo unspecified) | 18.6 µM (inactive) | 20.1 µM (inactive) | 15.9 µM (inactive) | 21.7 µM (inactive) | 19.7 µM (inactive) | 18.1 µM (inactive) | 24.7 µM (inactive) | 23.6 µM (inactive) | 13.6 µM (inactive) | 7.74 µM (inactive) | 20.7 µM (inactive) | 15.1 µM (inactive) | 19.5 µM (inactive) | 21.4 µM (inactive) | 15.4 µM (inactive) | – | – | – | – | – |
| CC(=O)Nc1ccc(C2CC(c3ccc([N+](=O)[O-])cc3)=Nc3ccccc3S2)cc1 (stereo unspecified) | 9.75 µM (inactive) | 13.8 µM (inactive) | 15.5 µM (inactive) | 13.8 µM (inactive) | 19.3 µM (inactive) | 16.6 µM (inactive) | 16.6 µM (inactive) | 24 µM (inactive) | 16.8 µM (inactive) | 23.2 µM (inactive) | 12.9 µM (inactive) | 19.7 µM (inactive) | 17.9 µM (inactive) | 18.6 µM (inactive) | 13.9 µM (inactive) | – | – | – | – | – |
| Cc1ccccc1N1C(=O)/C(=C/c2ccc(N(CCC#N)CCC#N)cc2)N=C1c1cc([N+](=O)[O-])ccc1Cl | – | > 100 µM (inactive) | – | 48.6 µM (inactive) | – | > 100 µM (inactive) | 96.8 µM (inactive) | > 100 µM (inactive) | > 100 µM (inactive) | 59.3 µM (inactive) | 7.19 µM (inactive) | > 100 µM (inactive) | > 100 µM (inactive) | 31 µM (inactive) | > 100 µM (inactive) | – | – | – | – | – |
| Cc1ccc2[nH]c(=O)c(C(C#N)c3ccccc3)nc2c1 (stereo unspecified) | 33.7 µM (inactive) | 27.9 µM (inactive) | 34.4 µM (inactive) | 32.7 µM (inactive) | 23 µM (inactive) | 50.9 µM (inactive) | 32.7 µM (inactive) | 32.6 µM (inactive) | 43.8 µM (inactive) | 23.6 µM (inactive) | 71.3 µM (inactive) | 30.1 µM (inactive) | 20 µM (inactive) | 30.4 µM (inactive) | 32 µM (inactive) | – | – | – | – | – |
| CCOC(=O)NC(=O)c1cn(CCN2CCN(C(=O)NCCCCCCNC(=O)N3CCN(CCn4cc(C(=O)NC(=O)OCC)c(=O)n(CCN(CC)CC)c4=O)CC3)CC2)c(=O)n(CCC(CC)CC)c1=O | > 100 µM (inactive) | > 100 µM (inactive) | > 100 µM (inactive) | – | > 100 µM (inactive) | > 100 µM (inactive) | > 100 µM (inactive) | > 100 µM (inactive) | > 100 µM (inactive) | > 100 µM (inactive) | > 100 µM (inactive) | > 100 µM (inactive) | > 100 µM (inactive) | > 100 µM (inactive) | > 100 µM (inactive) | – | – | – | – | – |
| CC(=O)c1cccc(NC(=O)C(=O)C(C2OC(=O)c3ccccc32)[N+](=O)[O-])c1 (stereo unspecified) | > 100 µM (inactive) | 60.1 µM (inactive) | > 100 µM (inactive) | > 100 µM (inactive) | > 100 µM (inactive) | > 100 µM (inactive) | > 100 µM (inactive) | > 100 µM (inactive) | > 100 µM (inactive) | > 100 µM (inactive) | > 100 µM (inactive) | > 100 µM (inactive) | > 100 µM (inactive) | > 100 µM (inactive) | > 100 µM (inactive) | – | – | – | – | – |
| COC(=O)C1(C(=O)OC)CC2c3c(c4ccccc4n3C)CC(C1=O)N2Cc1ccccc1 (stereo unspecified) | > 100 µM (inactive) | > 100 µM (inactive) | > 100 µM (inactive) | > 100 µM (inactive) | 29.8 µM (inactive) | > 100 µM (inactive) | > 100 µM (inactive) | > 100 µM (inactive) | > 100 µM (inactive) | > 100 µM (inactive) | – | 76.6 µM (inactive) | > 100 µM (inactive) | > 100 µM (inactive) | > 100 µM (inactive) | – | – | – | – | – |
| O=C(CSc1nnc(-c2ccc(/N=C\c3ccc(Cl)cc3)cc2)o1)Nc1cccc(Cl)c1 | > 100 µM (inactive) | > 100 µM (inactive) | > 100 µM (inactive) | > 100 µM (inactive) | 80.5 µM (inactive) | > 100 µM (inactive) | > 100 µM (inactive) | > 100 µM (inactive) | > 100 µM (inactive) | – | > 100 µM (inactive) | > 100 µM (inactive) | > 100 µM (inactive) | > 100 µM (inactive) | > 100 µM (inactive) | – | – | – | – | – |
| OC1c2ccccc2C2C(O)c3ccccc3C12 (stereo unspecified) | – | > 100 µM (inactive) | > 100 µM (inactive) | > 100 µM (inactive) | > 100 µM (inactive) | > 100 µM (inactive) | > 100 µM (inactive) | > 100 µM (inactive) | > 100 µM (inactive) | > 100 µM (inactive) | – | > 100 µM (inactive) | > 100 µM (inactive) | > 100 µM (inactive) | > 100 µM (inactive) | – | – | – | – | – |
| NS(=O)(=O)c1ccc(NC(=O)N/N=C/c2ccccc2[N+](=O)[O-])cc1 | 30.1 µM (inactive) | 41 µM (inactive) | 44.7 µM (inactive) | 25.9 µM (inactive) | > 100 µM (inactive) | 66.7 µM (inactive) | – | 56.6 µM (inactive) | 36.1 µM (inactive) | 30.1 µM (inactive) | 17.9 µM (inactive) | 59.8 µM (inactive) | 58.7 µM (inactive) | 61.7 µM (inactive) | 36 µM (inactive) | 35.6 µM (inactive) | 29.7 µM (inactive) | 33.3 µM (inactive) | 57.4 µM (inactive) | 19.4 µM (inactive) |
| COC(=O)c1sc2c(Cl)c(Cl)sc2c1Cl | > 100 µM (inactive) | > 100 µM (inactive) | > 100 µM (inactive) | > 100 µM (inactive) | > 100 µM (inactive) | > 100 µM (inactive) | – | > 100 µM (inactive) | > 100 µM (inactive) | 93.8 µM (inactive) | > 100 µM (inactive) | > 100 µM (inactive) | > 100 µM (inactive) | 77.4 µM (inactive) | > 100 µM (inactive) | > 100 µM (inactive) | 50.5 µM (inactive) | > 100 µM (inactive) | > 100 µM (inactive) | > 100 µM (inactive) |
| O=[N+]([O-])c1cccc(CSc2nc(O)c3nc[nH]c3n2)c1 | > 100 µM (inactive) | > 100 µM (inactive) | > 100 µM (inactive) | 9.46 µM (inactive) | > 100 µM (inactive) | > 100 µM (inactive) | – | > 100 µM (inactive) | > 100 µM (inactive) | > 100 µM (inactive) | > 100 µM (inactive) | > 100 µM (inactive) | > 100 µM (inactive) | > 100 µM (inactive) | > 100 µM (inactive) | > 100 µM (inactive) | > 100 µM (inactive) | > 100 µM (inactive) | > 100 µM (inactive) | > 100 µM (inactive) |
| O=[N+]([O-])c1cc(Cl)ccc1OCc1ccccc1 | 55.6 µM (inactive) | – | 40.8 µM (inactive) | 40.9 µM (inactive) | 47.3 µM (inactive) | 51.4 µM (inactive) | 41.6 µM (inactive) | > 100 µM (inactive) | > 100 µM (inactive) | 33 µM (inactive) | 26.4 µM (inactive) | > 100 µM (inactive) | > 100 µM (inactive) | 56.6 µM (inactive) | > 100 µM (inactive) | – | – | – | – | – |
| Cc1ccc(NC(=O)CC(=O)n2nc(C)c(/N=N/c3ccccc3C(=O)O)c2C)cc1 | > 100 µM (inactive) | > 100 µM (inactive) | > 100 µM (inactive) | > 100 µM (inactive) | – | – | > 100 µM (inactive) | > 100 µM (inactive) | > 100 µM (inactive) | > 100 µM (inactive) | – | > 100 µM (inactive) | > 100 µM (inactive) | > 100 µM (inactive) | > 100 µM (inactive) | – | – | – | – | – |
| Clc1nc2c(-c3cccs3)ncnc2n1Cc1ccccc1 | 45.2 µM (inactive) | 0.435 µM (active) | > 86.9 µM (inactive) | > 68.1 µM (inactive) | 17 µM (inactive) | 2 µM (inactive) | – | 29.6 µM (inactive) | > 30.3 µM (inactive) | 23 µM (inactive) | 6.97 µM (inactive) | 44.9 µM (inactive) | 63.2 µM (inactive) | 63.5 µM (inactive) | 15.9 µM (inactive) | 26.2 µM (inactive) | 6.04 µM (inactive) | 46.3 µM (inactive) | 10.1 µM (inactive) | 42.6 µM (inactive) |
| CCC1(N=[N+]=[N-])C(=O)c2ccccc2N(c2ccccc2)C1=O (stereo unspecified) | > 100 µM (inactive) | > 100 µM (inactive) | > 100 µM (inactive) | > 100 µM (inactive) | – | > 100 µM (inactive) | > 100 µM (inactive) | > 100 µM (inactive) | > 100 µM (inactive) | > 100 µM (inactive) | > 100 µM (inactive) | > 100 µM (inactive) | > 100 µM (inactive) | > 100 µM (inactive) | > 100 µM (inactive) | – | – | – | – | – |
| S=c1c2cn[nH]c2nc2scc(-c3ccc(Cl)cc3)n12 | 14.2 µM (inactive) | 6.24 µM (inactive) | 11.3 µM (inactive) | 16.2 µM (inactive) | 4.04 µM (inactive) | 12.9 µM (inactive) | – | 16.6 µM (inactive) | 9.04 µM (inactive) | 20.1 µM (inactive) | 12.1 µM (inactive) | 43.1 µM (inactive) | 18.2 µM (inactive) | > 10 µM (inactive) | 11.1 µM (inactive) | 12.9 µM (inactive) | 18.5 µM (inactive) | 13.8 µM (inactive) | > 10 µM (inactive) | 4.36 µM (inactive) |
